The results in this text go back to patent publication US12428370B2, “Haloallylamine dual amine oxidase inhibitors” (Syntara Limited, priority 2020, dated 2025).

The target of one assay is T1, Rat Brain Tissue MAO-B (Rattus norvegicus, UniProt P19643).
T1 construct: Brain tissue was homogenized in ice-cold Tris buffer; from tissue; host or cells: brain of Sprague Dawley rats (mitochondrial extract)
T1 sequence (P19643 1-520): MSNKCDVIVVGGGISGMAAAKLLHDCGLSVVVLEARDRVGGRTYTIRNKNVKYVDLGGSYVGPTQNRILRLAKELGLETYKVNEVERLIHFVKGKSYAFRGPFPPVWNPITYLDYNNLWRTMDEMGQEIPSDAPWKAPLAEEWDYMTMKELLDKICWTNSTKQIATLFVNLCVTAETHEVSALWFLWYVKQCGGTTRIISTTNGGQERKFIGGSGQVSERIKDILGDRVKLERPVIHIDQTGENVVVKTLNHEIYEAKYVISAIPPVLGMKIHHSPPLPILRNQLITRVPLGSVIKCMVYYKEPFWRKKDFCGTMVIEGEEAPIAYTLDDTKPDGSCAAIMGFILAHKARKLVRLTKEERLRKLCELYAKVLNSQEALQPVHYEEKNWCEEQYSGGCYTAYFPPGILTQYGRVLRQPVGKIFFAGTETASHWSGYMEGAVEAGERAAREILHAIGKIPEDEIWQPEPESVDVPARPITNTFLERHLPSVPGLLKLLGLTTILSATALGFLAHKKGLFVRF
Description: Rat brain tissue MAO-B activity after oral administration. Particulars: single oral dose 0.6 mg/kg, Sprague Dawley rat brain tissue, FIG. 3. Type of assay: in vivo, Sprague Dawley rats. Here is the method: Sprague Dawley rats were orally administered the compound under study and sacrificed at various time points and gonadal fat and brain tissue collected.
Brain tissue was homogenized in ice-cold Tris buffer (10 mM Tris·HCl, 0.5 mM EDTA, sucrose 250 mM, pH 7.4). Homogenate was then centrifuged at 4,000 rpm for 3 minutes at 4° C. The resultant supernatant was transferred and centrifuged again at 4,000 rpm for 3 minutes at 4° C. Process repeated one last time, this time at 10,000 rpm for 8 minutes. Supernatant discarded and the resultant pellet containing the mitochondrial extract re-suspended in 0.1 M sodium phosphate buffer solution (1:3 ratio). MAO-B activity was determined by using a specific MAO-A inhibitor (e.g. clorgyline) and a SSAO/VAP-1 inhibitor (e.g. semicarbazide) to establish the high signal. Low signal was established as for the adipose tissue assay.
Activity of the treated samples was analyzed using the fluorometric method described in EXAMPLE 9 for SSAO/VAP-1 activity and EXAMPLE 10 for MAO-B.

The target in assay [1] is T2, Muscle and Heart Tissue MAO-A (Mus musculus, UniProt Q64133).
T2 construct: Skeletal muscle was pulverized in liquid nitrogen and then suspended in ice-cold HEPES buffered media; from tissue; host or cells: skeletal muscle and heart of C57BL/6J and mdx mice (mitochondrial extract)
T2 sequence (Q64133 1-526): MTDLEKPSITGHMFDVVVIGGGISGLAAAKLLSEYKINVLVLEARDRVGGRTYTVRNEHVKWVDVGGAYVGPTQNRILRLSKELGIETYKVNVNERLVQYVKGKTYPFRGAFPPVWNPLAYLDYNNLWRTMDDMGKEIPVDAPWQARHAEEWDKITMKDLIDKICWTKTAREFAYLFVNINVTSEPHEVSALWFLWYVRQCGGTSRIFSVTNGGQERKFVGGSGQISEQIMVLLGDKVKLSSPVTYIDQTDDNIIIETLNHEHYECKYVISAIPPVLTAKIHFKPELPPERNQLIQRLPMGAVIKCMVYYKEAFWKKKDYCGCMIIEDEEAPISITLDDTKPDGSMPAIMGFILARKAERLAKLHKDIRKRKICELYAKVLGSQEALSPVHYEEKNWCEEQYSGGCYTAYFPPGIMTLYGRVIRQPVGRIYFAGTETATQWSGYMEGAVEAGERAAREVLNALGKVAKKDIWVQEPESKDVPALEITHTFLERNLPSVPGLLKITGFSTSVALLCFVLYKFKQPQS
Description: Mouse muscle and heart tissue MAO-A activity after oral administration. The class given is in vivo. Here is the method:
(§1) Mice were orally administered the compound under study and sacrificed at various time points and abdominal fat, muscle and heart tissue collected.
(§2) Skeletal muscle was pulverized in liquid nitrogen and then suspended in ice-cold HEPES buffered media (20 mM HEPES, 0.8% w/v free-fatty acid bovine serum albumin (BSA), 75 mM sucrose, 10 mM EDTA, 215 mM D-mannitol, pH 7.4). Homogenized and then centrifuged at 2,500 rpm for 10 minutes at 4° C. Supernatant transferred and centrifuged at 10,000 rpm for 8 minutes. Supernatant discarded and the resultant pellet containing the mitochondrial extract re-suspended in 0.1 M sodium phosphate buffer solution (1:3 ratio).
(§3) Heart muscle was washed with PBS solution three times over ice. Homogenate and extract was then prepared as described for the skeletal muscle.
MAO-A activity was determined by using a selective MAO-B inhibitor mofegiline (at 30 nM) to establish the high signal and a mixture of specific MAO-A inhibitor (clorgyline) and mofegiline (at 30 nM) to determine the low signal.
(§4) Activity of the treated samples was analyzed using the fluorometric method described in EXAMPLE 9 for SSAO/VAP-1 activity, EXAMPLE 10 for MAO-B and EXAMPLE 11 for MAO-A activity (FIG. 8 and FIG. 9).

For assay [2], the target named is T3, Muscle and Heart Tissue MAO-B (Mus musculus, UniProt Q8BW75).
T3 construct: Skeletal muscle was pulverized in liquid nitrogen and then suspended in ice-cold HEPES buffered media; from tissue; host or cells: skeletal muscle and heart of C57BL/6J and mdx mice (mitochondrial extract)
T3 sequence (Q8BW75 1-520): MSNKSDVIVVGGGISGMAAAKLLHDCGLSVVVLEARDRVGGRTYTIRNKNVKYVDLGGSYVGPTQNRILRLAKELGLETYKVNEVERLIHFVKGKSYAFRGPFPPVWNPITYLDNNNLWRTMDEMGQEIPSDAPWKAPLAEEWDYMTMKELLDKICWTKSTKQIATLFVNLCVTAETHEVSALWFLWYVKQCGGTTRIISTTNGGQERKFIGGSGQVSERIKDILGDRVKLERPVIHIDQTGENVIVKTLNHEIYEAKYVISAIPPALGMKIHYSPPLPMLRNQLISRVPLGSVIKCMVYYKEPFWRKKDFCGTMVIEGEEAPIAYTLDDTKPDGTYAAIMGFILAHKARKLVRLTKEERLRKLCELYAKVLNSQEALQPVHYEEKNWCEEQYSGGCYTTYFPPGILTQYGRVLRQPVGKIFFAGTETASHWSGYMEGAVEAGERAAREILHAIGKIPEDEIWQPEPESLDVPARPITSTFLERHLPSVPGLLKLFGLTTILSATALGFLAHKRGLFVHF
Nature of the assay: Mouse muscle and heart tissue MAO-B activity after oral administration. The class given is in vivo. Particulars: for MAO-B activity in heart and muscle tissue: C57BL/6J mice, single oral dose, FIG. 8. Here is the method:
as §1, §2, §3
MAO-B activity was determined by using a specific MAO-A inhibitor (e.g. clorgyline) and an SSAO/VAP-1 inhibitor (e.g. semicarbazide) to establish the high signal. Low signal was established as for the adipose tissue assay (EXAMPLE 13).
as §4

Counter-ions that a name gives are not always drawn.

Turning to `NC/C(=C\F)C1Cc2ccccc2O1` (single isomer, unassigned; (-)) [PXS-5131, (−)-(E)-2-(2,3-Dihydrobenzofuran-2-Yl)-3-Fluoroprop-2-En-1-Amine Hydrochloride], the “duration of inhibition of MAO-B enzyme activity” value at Rat Brain Tissue MAO-B is “greater than 24 hours”.
Turning to `N#Cc1ccc(OC/C(=C/F)CN)cc1` [Compound 1, (E)-4-((2-(aminomethyl)-3-fluoroallyl)oxy) benzonitrile], the “heart and muscle MAO-A activity” value in assay [1] (C57BL/6J mice, single oral dose, 4 and 24 hours after administration, FIG. 9) is “no inhibitory effect”. The “muscle MAO-A activity” value in assay [1] (mdx mice (C57BL/10ScSn-Dmdmdx/J), oral, FIG. 11) is recorded as “no inhibitory effect”. Also, the “MAO-B activity in heart and muscle tissue” value in assay [2] (24-hour time point) is given as “inhibition of the enzyme activity is still evident”; in assay [2] (various doses, 4 hours after administration), “dose-related reduction”. Further, in assay [2] (mdx mice (C57BL/10ScSn-Dmdmdx/J), oral, FIG. 10), the “muscle MAO-B activity” value is “completely inhibits”.
